Laboratory results reported in patent US11091486B2, “Process for the preparation of pyrazolo[1,5-a]pyrimidines and salts thereof” (Array BioPharma Inc., priority 2016, dated 2021).

What was measured:
[1] = system: Rat cryopreserved hepatocytes; assay: In vitro metabolic stability in rat hepatocytes (Example 34); assay type: in vitro ADME, Sprague Dawley rat; details: 1 μM, predicted hepatic extraction ratio
Description: In vitro metabolic stabilities were studied at a concentration of 1 μM in the presence of liver microsomes and isolated hepatocytes.
A stock solution of the test compound was prepared at 10 mM (active compound) in DMSO. The in vitro stability of the test compound (1 μM) was assessed in the presence of hepatocytes as follows. Cryopreserved hepatocytes were thawed, isolated from shipping media and diluted to a density of 1×10^6 viable cells/mL, according to the supplier's guidelines, using Dulbecco's Modified Eagle Medium, 1×, high glucose (DMEM, Invitrogen, Carlsbad, Calif.). Viability was determined by trypan blue exclusion using a hemocytometer (3500 Hausser, VWR, West Chester, Pa.). […]
Data were acquired and peak areas were calculated for test compounds and the internal standard using Analyst 1.6.1 software (Sciex). […]
All calculations were performed using BioAssay Enterprise. The mean peak area ratios were calculated by averaging the peak area ratios (n=2) of test compound and the internal standard for each sample. Percent remaining was calculated by determining the ratio of the peak area ratio at each time point to the peak area ratio of the time-zero samples. The rate of loss of test compound (km) was determined by linear regression of—1n(f(t)) versus time. […] The t½ was determined dividing 1n(2) by km. […]

MDR1 (P-gp) = target: T1, MDR1 (P-gp) (Homo sapiens, UniProt P08183); assay: MDR1 efflux in MDR1 transfected LLC-PK1 cells (Example 35); assay type: in vitro ADME; details: pig, MDR1 transfected LLC-PK1 monolayers, read-out: MDRI efflux ratio
T1 construct: expressed in transfected cells; host or cells: LLC-PK1 cells
T1 sequence (P08183 whole entry): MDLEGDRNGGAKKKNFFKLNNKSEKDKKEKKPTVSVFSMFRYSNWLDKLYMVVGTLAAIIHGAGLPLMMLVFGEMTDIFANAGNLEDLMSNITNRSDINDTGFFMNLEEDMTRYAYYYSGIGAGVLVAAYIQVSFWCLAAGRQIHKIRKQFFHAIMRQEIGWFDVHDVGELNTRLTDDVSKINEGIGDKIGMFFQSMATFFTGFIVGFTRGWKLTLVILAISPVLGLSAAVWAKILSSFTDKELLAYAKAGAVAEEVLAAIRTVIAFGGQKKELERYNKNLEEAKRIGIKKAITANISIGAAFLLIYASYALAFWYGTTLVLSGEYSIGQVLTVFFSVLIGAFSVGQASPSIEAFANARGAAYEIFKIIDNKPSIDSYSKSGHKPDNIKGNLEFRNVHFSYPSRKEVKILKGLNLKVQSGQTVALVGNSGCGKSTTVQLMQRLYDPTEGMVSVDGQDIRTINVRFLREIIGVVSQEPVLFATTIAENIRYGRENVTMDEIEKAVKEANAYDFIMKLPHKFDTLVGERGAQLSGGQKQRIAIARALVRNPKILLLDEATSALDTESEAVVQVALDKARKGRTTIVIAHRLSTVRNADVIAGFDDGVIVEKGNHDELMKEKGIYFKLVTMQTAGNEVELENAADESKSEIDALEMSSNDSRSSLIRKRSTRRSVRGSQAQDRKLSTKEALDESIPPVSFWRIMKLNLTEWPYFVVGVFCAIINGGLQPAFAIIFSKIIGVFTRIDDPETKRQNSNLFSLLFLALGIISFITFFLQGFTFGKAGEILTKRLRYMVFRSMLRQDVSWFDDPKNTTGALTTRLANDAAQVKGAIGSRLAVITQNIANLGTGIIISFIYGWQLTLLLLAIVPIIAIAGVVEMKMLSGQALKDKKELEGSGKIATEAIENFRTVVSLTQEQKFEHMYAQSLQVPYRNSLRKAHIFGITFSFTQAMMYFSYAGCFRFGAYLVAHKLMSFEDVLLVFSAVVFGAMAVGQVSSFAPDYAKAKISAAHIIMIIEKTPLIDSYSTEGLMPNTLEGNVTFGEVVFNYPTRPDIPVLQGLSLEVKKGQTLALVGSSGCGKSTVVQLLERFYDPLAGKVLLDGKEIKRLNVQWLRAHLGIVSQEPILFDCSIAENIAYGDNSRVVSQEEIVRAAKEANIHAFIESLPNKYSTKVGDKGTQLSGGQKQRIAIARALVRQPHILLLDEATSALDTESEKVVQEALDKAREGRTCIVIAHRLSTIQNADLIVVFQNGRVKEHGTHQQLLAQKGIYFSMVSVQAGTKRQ
Description: Both LLC-PK1 and MDR1 transfected LLC-PK1 cells were cultured and plated according to manufacturer's recommendations with the exception that the passage media contained only 2% fetal bovine serum so as to extend passage time out to seven days.
Both positive and negative controls were used to assess functionality of P-gp efflux in the assay. Stock solutions for assay controls and the test article were prepared in DMSO for a final test concentrations of 10 μM. Final organic concentration in the assay was 1%. All dosing solutions contained 10 μM lucifer yellow to monitor LLC-PK1 cell monolayer integrity.
For the apical to basolateral determination (A to B), 75 μL of the test article in transport buffer were added to the apical side of the individual transwells and 250 μL of basolateral media, without compound or lucifer yellow, were added to each well. […] The plates were read using a Molecular Devices (Sunnyvale, Calif.) Gemini Fluorometer to evaluate the lucifer yellow concentrations at excitation/emission wavelengths of 425/535 nm. […] The plates were sealed and the contents of each well analyzed by LC-MS/MS. The compound concentrations were determined from the ratio of the peak areas of the compound to the internal standard (labetalol) in comparison to the dosing solution.
Permeability (Papp) was calculated in BioAssay v. […]

| Structure (SMILES) | Rat Hepatocyte Clearance (% ER) [1] [% ER] | efflux ratio at 2 h, 10 μM (MDR1 (P-gp)) |
| --- | --- | --- |
| C[C@@H]1CCc2ncc(F)cc2[C@H]2CCCN2c2ccn3ncc(c3n2)C(=O)N1 [Formula I] | 64 | 14 |
| C[C@H]1CCc2ncc(F)cc2[C@H]2CCCN2c2ccn3ncc(c3n2)C(=O)N1 [formula I′] | 83 | 5 |
